Data from PMC5437278, “Targeting the deubiquitinase STAMBP inhibits NALP7 inflammasome activity” (Nature Communications, 2017).

Target: T1, STAMBP (purified, recombinant) (Homo sapiens, UniProt O95630)
T1 construct: commercial purified recombinant STAMBP (R&D Systems E-548B)
T1 sequence (O95630 1-424): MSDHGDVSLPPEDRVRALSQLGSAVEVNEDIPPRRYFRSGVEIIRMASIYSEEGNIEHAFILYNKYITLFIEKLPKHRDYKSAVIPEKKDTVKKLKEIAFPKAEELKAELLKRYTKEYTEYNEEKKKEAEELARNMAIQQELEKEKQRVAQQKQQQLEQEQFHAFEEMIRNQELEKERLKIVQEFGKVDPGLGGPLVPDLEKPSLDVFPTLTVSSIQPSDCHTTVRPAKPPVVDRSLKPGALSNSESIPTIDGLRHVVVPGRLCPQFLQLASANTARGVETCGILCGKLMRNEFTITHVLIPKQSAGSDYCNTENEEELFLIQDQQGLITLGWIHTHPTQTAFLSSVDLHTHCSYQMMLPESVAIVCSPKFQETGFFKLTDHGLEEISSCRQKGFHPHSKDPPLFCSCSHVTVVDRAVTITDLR
Assay: in vitro DUB assay, cleavage of K63-linked di-ubiquitin to mono-Ub, immunoblot
Format: biochemical
Conditions: 200 nM K63-linked di-Ub, 25 nM STAMBP, pH 7.5, 37 °C, 2 h; competitive

BC-1471
IC50: 0.33 µM
